# From paper PMC7262913, “Substrate recognition by a bifunctional GH30‐7 xylanase B from Talaromyces cellulolyticus” (FEBS Open Bio, 2020)
# Target: T1, TcXyn30B (Talaromyces pinophilus, UniProt A0A510NXC4)
# T1 construct: gene TCE0_018f06110; no His tag; vector residues AYVEF at N-terminus (numbered 18-22); secreted from Pichia pastoris GS115, N-glycosylated, 62182 Da; one molecule per asymmetric unit
# T1 sequence (A0A510NXC4 23-474): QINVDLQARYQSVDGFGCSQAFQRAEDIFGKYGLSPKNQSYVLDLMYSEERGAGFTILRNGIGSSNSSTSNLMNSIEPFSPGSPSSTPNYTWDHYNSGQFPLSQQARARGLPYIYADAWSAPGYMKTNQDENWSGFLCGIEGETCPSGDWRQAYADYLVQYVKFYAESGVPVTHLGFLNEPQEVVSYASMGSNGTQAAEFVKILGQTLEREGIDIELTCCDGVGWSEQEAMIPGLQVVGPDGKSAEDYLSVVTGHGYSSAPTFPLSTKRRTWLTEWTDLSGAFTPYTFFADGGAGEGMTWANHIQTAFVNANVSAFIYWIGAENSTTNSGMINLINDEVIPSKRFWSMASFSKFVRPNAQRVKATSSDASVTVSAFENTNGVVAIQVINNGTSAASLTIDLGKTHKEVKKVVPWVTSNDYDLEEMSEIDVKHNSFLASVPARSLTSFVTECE
# Experiment: X-ray crystallography (co-crystal, […] Å)
# Type: binding
# Details: co-crystallised with aldouronic acid mixture (Megazyme); pH 7.3, MgCl2; subsites -1, -2a and -2b of active site
smiles,measurement,value
"CO[C@H]1[C@H](O)[C@@H](O)[C@@H](O[C@H]2[C@H](O[C@@H]3COC(O)[C@H](O)[C@H]3O)OC[C@@H](O)[C@@H]2O)O[C@@H]1C(=O)O (stereo partly drawn) [U^4m2X, 2^2‐(4‐O‐methyl‐α‐D‐glucuronyl)‐xylobiose]","X-ray crystallography (co-crystal, 1.65 Å)",A clear density map for U^4m2X is observed in the active cleft
